Source: US12729368B2, “Methods and compositions for generating oligodendrocyte progenitor cells” (Trailhead Biosystems Inc., priority 2022, dated 2026)
Several values for one entry are separate records, joined by “and”; a condition that tells them apart may be missing. Identical values can stand only once.

What was measured:
Format in all cases: cell-based, human
[1] = tested on: cells cultured in stage 1 and stage 2 differentiation media; assay: HD-DoE 8-factor model for stage 3 (version 2); details: for factor contribution: positive
[2] = tested on: stage 2 early-OPCs; assay: HD-DoE 12-factor model for stage 3 (version 1) on stage 2 early-OPCs; details: positive
Description: In another model, the effects of Activin A and TTNPB along with LDN193189, MHY1485, PDGF-AA, AICAR, FGF2, CHIR99021, DBZ, MK2206, Purmorphamine and T3+T4 were tested on gene profile of differentiating cells. When this model was optimized for maximum expression of SOX10 at 54.7, we observed Activin A again had positive regulatory impact on its expression, with factor contribution of 4.7. Other positive factors included MK2206, with the highest factor contribution at 16.2, MHY1485 at 11.49, CHIR99021 at 9.6, DBZ at 9.3, FGF2 at 3.6 and PDGF-AA, with factor contribution less than 3 (FIG. 20).
In this model, we also investigated the conditions of expression of another important OPC gene, CSPG4 (Goldman and Kuypers (2015) Development 142:3983-95: van Tilborg et al. (2018) Glia 66:221-238).
Dynamic profile analysis was used to better assess the impact of the factors on our selected genes and find the combination set that can optimize their expression (FIG. 22). According to this analysis, even though Activin A has a positive effect on SOX10, it decreases level of PDGFRa and OLIG1. […] Moreover, SOX10 is one of the main transcription factors of oligodendrocytes, along with OLIG2 and NKX2-2, that has shown the potential to commit the stem cells to oligodendrocytes in reprogramming efforts (Wang et al. (2014) Proc Natl Acad Sci USA 111:E2885-94; Garciá-León et al. (2018) Stem Cell Reports 10:655-672). […] One of the main challenges of differentiating cells to oligodendrocyte fate is controlling the mixed population and increasing the purity of the culture by committing more cells to oligodendrocyte over neuronal identity. Therefore, DBZ was excluded from the final recipe.
At this point, we investigated the expression profile of a larger group of genes defining oligodendrocyte progenitor population at a later stage, including ID2, CNP and BCAN (Perlman et al. (2020). Glia 68:1291-1303; Goldman and Kuypers (2015) Development 142:3983-95). In this model, these genes were expressed at 1900, 660 and 44, respectively.

[3] = tested on: pre-OPCs; assay: HD-DoE 12-factor model for stage 2 (version 1), 3 days on stage 1 pre-OPCs; details: for factor contribution: optimized for maximum expression of OLIG2 at 1841.6
Summary of the method: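 Cells grown first in stage 1 medium were treated for 3 days with combinations of 8 or 12 factors, including FGF, TGF-b, WNT, RA, AKT, SHH, mTOR and PKC pathway modulators. Gene expression was modelled and maximized for OLIG2, with NKX2-2, SOX10, OLIG1 and PDGFRa tracked by dynamic profile analysis.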

## c1ccc2c(Oc3nc(Nc4ccc(N5CCOCC5)cc4)c4ncn(C5CCCCC5)c4n3)cccc2c1 [Purmorphamine]
[1]; optimized for maximum expression of PDGFRa at 853.4
  factor contribution: 20.6 and 20.61
[2]; optimized for maximum expression of CSPG4 at 38.6
  factor contribution: 10.3
[3]; dynamic profile, model maximized for OLIG2
  effect on expression of SOX10: positively regulate
[3]; negative impact
  factor contribution: 7.2

## FGF2: FGF pathway activator, an FGFR agonist
[1]; factor plots vs concentration
  effect on late OPC genes and neuronal genes: increased the expression levels of OPC genes while decreasing the expression levels of neuronal genes
[1]; optimized for SOX10 at 41.04
  factor contribution: 15.3
[2]; optimized for maximum expression of SOX10 at 54.7
  factor contribution: 3.6
[3]; positive regulatory effect
  factor contribution: 12.9
